This experiment deals with T1, Bcl-xL (Homo sapiens, UniProt Q07817).
T1 construct: made in house; host or cells: E. coli
The experiment is described as follows: Fluorescence polarization assay, Bim BH3 peptide binding to GST-Bcl-xL. The settings on record: Bim-BH3-FITC peptide, read-out: IC50, inhibition of Bim-BH3 peptide binding to Bcl-xL.
Source text: A nineteen amino acid peptide, corresponding to the BH3 domain of Bim, with the sequence FITC-GGGIAQELRRIGDEFNAY (SEQ ID NO: 1) was labeled with the tluorophore FITC according to the manufacturer's instructions (Molecular Probes, Eugene, Oreg.). This sequence was identified as being able to bind to purified Bcl-xL protein (Sattler et al. (1997) Science 275(5302): 983-86) and to have biological activity in cells (Holinger et al. J. Biol. Chem. 274; 13298-1330).
In addition, recombinant GST -Mcl-1 and GST-Bcl-xL fusion proteins were generated in E.coli and purified using glutathione-sepharose beads using conventional techniques known to those skilled in the fields of biochemistry and molecular biology, (methods for preparation are described in Strategies for Protein Purification and Characterization, Marshak, D, Kadonga, J, Burgess R, Knuth, M, Brennan, W, Sue-Hwa, L, CSH press, Cold Spring Harbor, N.Y.). Binding of the recombinant proteins to the fluorescent Bim BH3 domain was confirmed by titration of increasing concentrations of the recombinant proteins against a constant amount of labeled Bim peptide (16.65 nM). Quantitation of binding was accomplished by FP assay with mP measurements made on the Analyst-GT reader (Molecular Devices, Sunnyvale, Calif.).
Further, the ability of compound A to disrupt the interaction between the fluorescent Bim BH3 peptide and the two fusion proteins was assessed using a fluorescence polarization assay. […]
(§1) Experiments are performed using the fluorescence polarization assay as described in Example 2. […] The IC50 for blocking each BH3 peptide from Mcl-1 are assessed using FP, as described in Example 2.
as §1

T1 sequence (Q07817 whole entry): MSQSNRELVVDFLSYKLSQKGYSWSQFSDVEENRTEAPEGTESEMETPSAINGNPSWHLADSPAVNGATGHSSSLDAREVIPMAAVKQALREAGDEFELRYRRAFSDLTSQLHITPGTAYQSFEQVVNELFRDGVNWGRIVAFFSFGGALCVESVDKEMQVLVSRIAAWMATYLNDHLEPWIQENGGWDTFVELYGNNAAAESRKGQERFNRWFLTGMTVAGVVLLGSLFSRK

Turning to `COC(=O)c1ccc(O)c2nc3c(C=O)c(O)c(-c4c(O)c(C=O)c5nc6c(O)ccc(C(=O)OC)c6nc5c4O)c(O)c3nc12` [II-19, dimethyl 4,4′-diformyl-1,1′,3,3′,6,6′-hexahydroxy-[2,2′-biphenazine]-9,9′-dicarboxylate], the 50% inhibitory concentration (IC50) came out at 0.015 µM.

The record behind these values is patent US9351971B2, “Substituted 2,2′-biphenazines for treating diseases” (Eutropics Pharmaceuticals, Inc., priority 2010, dated 2016).
